The subject of experiment [1] is TAR RNA. Description: Gel-shift binding to TAR RNA. Further details: species or system HIV-1. The protocol: (§1) The model Tat peptide (R52: […]) was prepared by the Weizmann Institute Chemical Services and was purified by reverse phase HPLC (C-18) (Lapidot et al., 1995). […] The RNA was transcriptionally labeled with α-^32P UTP, purified on a 12% polyacrylamide/7M urea gel (19:1 acrylamide:bis-acrylamide) and was eluted from the gel by 0.5M ammonium acetate, 10 mM magnesium acetate, 1 mM EDTA and 0.1% SDS. The sample was subjected to phenol extraction and the RNA was precipitated from 70% ethanol. Purified RNA was dissolved in diethyl pyrocarbonate-treated water (DEPC water), its concentration was determined by UV absorption at 260 nm and the specific radioactivity was determined by scintillation counting on a LS 1701 “Bruker” counter.
To study the affinity of the test compounds to TAR, gel-shift and gel-shift inhibition experiments were performed. The binding reaction mixtures (20 μl) contained ^32P-labeled TAR (18-44) RNA oligonucleotide (3-6 nM) and Tat R52 peptide (35-75 nM) in a binding buffer (10 mM Tris-HCl pH 7.5, 70 mM NaCl, 0.2 mM EDTA and 5% glycerol). The reaction mixtures were incubated for 10 minutes on ice and resolved by electrophoresis on a 10% non-denaturing polyacrylamide gel (40:1 acrylamide:bis-acrylamide) at 200V, for 3 h at 4° C. Gels were dried and visualized by autoradiography. Quantitations were obtained by optical densitometry of films. Alternatively, results were visualized by exposing the wet gels to Fuji phosphoimager plates, which were read on a “Storm 820” (Molecular Dynamics) phosphoimager. […]
Binding of aminoglycoside-arginine conjugates (AAC) to TAR RNA was measured by adding varying concentrations of each conjugate to reaction mixtures (20 μl) which contained 12 nM ^32P-labeled TAR RNA. The reactions were analyzed as described above.

The next experiment concerns the target Tat-TAR interaction. Description: Gel-shift inhibition of Tat R52 peptide binding to TAR RNA. Further details: species or system HIV-1. To be noted: for Ki: CI50 normalized to the conditions of Tao and Frankel, 1992, read-out: apparent Ki; for IC50: TAR RNA 6 nM, 60 nM Tat R52, read-out: CI50 (the source's name). As to the method: The model Tat peptide (R52: […]) was prepared by the Weizmann Institute Chemical Services and was purified by reverse phase HPLC (C-18) (Lapidot et al., 1995). A 31-nt TAR RNA fragment (5′-GGCCAGAUCUGAGCCUGGGAGCUCUCUGGCC-3′) containing the sequence 18-44 of the HIV LTR (Aboul-Ela et al., 1995) was transcribed in vitro by T7 RNA polymerase (Promega) from a synthetic single strand DNA template containing the 17 base double-stranded T7 promoter (both DNA oligonucleotides were prepared by the Weizmann Institute Chemical Services). The RNA was transcriptionally labeled with α-^32P UTP, purified on a 12% polyacrylamide/7M urea gel (19:1 acrylamide:bis-acrylamide) and was eluted from the gel by 0.5M ammonium acetate, 10 mM magnesium acetate, 1 mM EDTA and 0.1% SDS. The sample was subjected to phenol extraction and the RNA was precipitated from 70% ethanol. Purified RNA was dissolved in diethyl pyrocarbonate-treated water (DEPC water), its concentration was determined by UV absorption at 260 nm and the specific radioactivity was determined by scintillation counting on a LS 1701 “Bruker” counter.
To study the affinity of the test compounds to TAR, gel-shift and gel-shift inhibition experiments were performed. The binding reaction mixtures (20 μl) contained ^32P-labeled TAR (18-44) RNA oligonucleotide (3-6 nM) and Tat R52 peptide (35-75 nM) in a binding buffer (10 mM Tris-HCl pH 7.5, 70 mM NaCl, 0.2 mM EDTA and 5% glycerol). The reaction mixtures were incubated for 10 minutes on ice and resolved by electrophoresis on a 10% non-denaturing polyacrylamide gel (40:1 acrylamide:bis-acrylamide) at 200V, for 3 h at 4° C. Gels were dried and visualized by autoradiography. Quantitations were obtained by optical densitometry of films. Alternatively, results were visualized by exposing the wet gels to Fuji phosphoimager plates, which were read on a “Storm 820” (Molecular Dynamics) phosphoimager. Different concentrations of TAR RNA (6,12 and 20 nM) were titrated with various concentrations of Tat R52 in the binding reactions.
Binding inhibition by the monosaccharide derivatives was measured by adding several concentrations of each compound to reaction mixtures containing 60 nM Tat 52 and 6 nM ^32P TAR, attaining 100% binding of Tat TAR in the absence of inhibitors (Lapidot et al., 1995).

Experiment [2] concerns TAR RNA. Briefly: L-arginine-Amberlite affinity column elution of TAR RNA. The class given is binding, HIV-1. The settings on record: concentration that elutes 50% of TAR RNA from L-arginine-Amberlite affinity column. As to the method:
as §1
The L-arginine-Amberlite resin was prepared as follows: Carboxyl groups of Amberlite IRC-50 resin were covalently modified with ethanolamine using 1-(3-dimethylaminopropyl) 3-ethylcarbodiimide, a water-soluble coupler. The hydroxy ethyleneamide resin obtained was washed and dried, and L-arginine (12-16 μmols per ml of resin) was coupled to the hydroxy groups of the resin via an isourea moiety using a standard cyanogen bromide protocol. The final concentration of arginine residues was 12-16 μmol per ml of resin. The swollen L-arginino-Amberlite resin (200 μl) was packed into a plastic mini-column and equilibrated with buffer containing 40 mM Tris HCl, pH 7.5, 250 mM NaCl, 0.5 mM EDTA and 5 mM MgCl2 (buffer A). Approximately 1 ng of ^32P-UTP labeled TAR RNA in buffer A was loaded on the column. The column was eluted 3 to 5 times with 400 μl portions of buffer A, until no radioactivity was detected in the eluent. […] Each of the test compounds was dissolved in buffer A and passed through the column in 300 μl portions. Radioactivity of the eluates was determined by scintillation counting on a LS 1701 “Bruker” counter. CE50 values, the concentrations of inhibitors eluting 50% of the radioactive material from the column, were determined.

On to `CN[C@@H]1[C@@H](O)[C@@H](O[C@@H]2[C@@H](O)[C@H](O[C@H]3O[C@H](CNC(=O)[C@@H](N)CCCNC(=N)N)CC[C@H]3NC(=O)[C@@H](N)CCCNC(=N)N)[C@@H](NC(=O)[C@@H](N)CCCNC(=N)N)C[C@H]2NC(=O)[C@@H](N)CCCNC(=N)N)OC[C@]1(C)O` [R4GC1a, Tetraargininamido-gentamicin (C1a) conjugate], for which, in the experiment on TAR RNA [1] (20 nM TAR RNA), the “concentration from which a complex with TAR RNA is formed” value is listed as ≥ 200 nM. Further, the CD50 in the experiment on TAR RNA [1] (50% binding, TAR RNA 20 nM) is given as 200 nM. For the same compound, the Kd on TAR RNA [1] (CD50 normalized to the reported conditions (Calnan et al., 1991 b), read-out: apparent Kd) was ~0.02 µM.
`COC1OC(CNC(=O)C(N)CCCNC(=N)N)C(O)C(O)C1O` [RMMP, Methyl 6-deoxy6-(N-L-argininamido)-α-D-mannopyranoside]: on Tat-TAR interaction, the Ki is ~160 µM and the IC50 stood at 1800 µM. The CE50 with TAR RNA [2] was 310 mM.
As to `CO[C@H]1O[C@H](CC#N)[C@@H](O)[C@H](O)[C@@H]1O` [compound 4, Methyl 6-deoxy-6-cyano-α-D-mannopyranoside], the IC50 on Tat-TAR interaction was 46000 µM. In addition, in the experiment on TAR RNA [2], the CE50 worked out at 1200 mM.
Regarding `CO[C@H]1O[C@H](CN)[C@@H](O)[C@H](O)[C@@H]1O` [compound 7, Methyl 6-deoxy-6-amino-α-D-mannopyranoside], the IC50 on Tat-TAR interaction came out at 56000 µM. For the same compound, in the experiment with TAR RNA [2], the CE50 was >1500 mM.
The like results for `CO[C@@H]1O[C@H](C/C(N)=N/O)C(O)[C@H](O)[C@@H]1O` (stereo partly drawn) [compound 9, Methyl 6-deoxy-α-D-mannoheptopyranuronic acid amidoxime] were, in that order, > 50000 µM and >1500 mM.
`CO[C@H]1O[C@H](CNC(=N)N)[C@@H](O)[C@H](O)[C@@H]1O` [compound 10, Methyl 6-deoxy-6-guanidino-α-D-mannopyranoside]: on Tat-TAR interaction, the Ki is ~1000 µM and the IC50 was determined as 9000 µM. Also, the CE50 with TAR RNA [2] turned out to be 650 mM.
On to `CO[C@@H]1O[C@H](CNC(C)=N)C(O)[C@H](O)[C@@H]1O` (stereo partly drawn) [compound 11, Methyl 6-deoxy-6-(N-acetamidino)-α-D-mannopyranoside], for which, at Tat-TAR interaction, the Ki was ~1000 µM and the IC50 stood at 11000 µM. In the experiment on TAR RNA [2], this compound had a CE50 of 730 mM.

For the origin of these results see patent US6642365B1, “Anti-(retro)viral conjugates of saccharides and acetamidino or guanidino compounds” (Yeda Research and Development Co. Ltd., priority 2001, dated 2003).
